Data set [1] has as its system HSV-1 (KOS strain). Kind of data set: Viral plaque number reduction assay, HSV-1 KOS strain. Format: cell-based, Herpes Simplex Virus type 1. The settings on record: for IC50: read-out: IC50 (KOS Strain). How it is done: (§1) Firstly, the cytotoxicity of compounds 1–6 was determined by SRB assay as described above. HSV-1 (KOS and 29R strains, which are sensitive and resistant to acyclovir, respectively, Faculty of Pharmacy, University of Rennes I, Rennes, France) were propagated in the permissive Vero cells. Viral stocks were titrated as based on plaque-forming units (PFU), counted by plaque assay as previously described, and stored at −80 °C until used. To perform the anti-HSV-1 screening, the viral plaque number reduction assay was used as described previously by Boff et al.. Briefly, confluent Vero cell monolayers (2.5 × 10^5 cells per well) were infected with approximately 100 PFU of each virus strain for 1 h at 37 °C. Treatments were performed by adding non-cytotoxic concentrations of the compounds after viral infection (post-infection treatment). Cells were then washed with phosphate-buffered saline (PBS) and overlaid with MEM containing 1.5% carboxymethylcellulose (CMC; Sigma-Aldrich) in the presence or absence of different concentrations of the compounds and incubated for 48 h. Cells were fixed and stained with naphthol blue-black (Sigma-Aldrich), and viral plaques were counted by using a stereomicroscope. The results were presented as percentages of viral inhibition or by IC50 values, which are defined as the concentration of each sample that inhibited viral plaque formation by 50% (IC50) when compared to untreated controls. The ratio between CC50 and IC50 values was calculated to obtain the selectivity index (SI) of each sample. Acyclovir (ACV, Sigma-Aldrich) was used as a positive control for HSV-1 (KOS strain) and as a negative control for HSV-1 (29-R strain) replication.

A short description of data set [2]: in vitro. The data set is classed as cell-based. The settings on record: African green monkey. How it is done: (§2) Non-small cells of human lung cancer cells (A549; ATCC: CCL 195) and African Green monkey kidney fibroblasts (Vero; ATCC: CCL81) were grown in Eagle’s minimum essential medium (MEM; Cultilab, Campinas, Brazil) supplemented with 1% glutamine (Gibco, Carlsbad, CA, USA) and 10% fetal bovine serum (FBS; Gibco, Carlsbad, CA, USA), and maintained at 37 °C and 5% CO2 in a humidified atmosphere. The antiproliferative screening was performed by sulforhodamine B assay (SRB). In summary, A549 cells were seeded into 96-well plates (2.5 × 10^4 cells per well) and exposed to different concentrations of compounds 1–6 for 48 h. Paclitaxel (PAC, Sigma-Aldrich, St. Louis, MO, USA) was used as a positive control. After incubation, 10% trichloroacetic acid (TCA) was added to each well to fix the cells, and then the cells were washed and stained with SRB. […] The ratio between CC50 and IC50 values was calculated to obtain the selectivity index (SI) of each sample.
as §1

For data set [3], the system named is HSV-1 (29R strain). In words: Viral plaque number reduction assay, HSV-1 29R strain. The data set is classed as cell-based, Herpes Simplex Virus type 1. The conditions noted are these: for inhibition at 100 µg/mL: tested concentration 100 µg/mL. How it is done: as §1
Data set [4] deals with non-small cells of human lung cancer (A549). In words: in vitro. The conditions noted are these: 48 h of treatment, sulforhodamine B assay, mean of three independent experiments, read-out: IC50 A549 Cell Line (Confidence Interval 95%). Format: cell-based. How it is done:
as §2
A general note: The SRB assay estimates cell density from bound dye.

Data set [5] is described as follows: in vitro. Format: cell-based. The settings on record: African green monkey (Vero) and human (A549), Vero cells (CC50) and A549 cells (IC50); CC50 Vero / IC50 A549; read-out: SI (selective index = CC50/IC50). How it is done: as §2
Data set [6] relates to Vero cell line. In words: in vitro. Format: cell-based. The conditions noted are these: African green monkey, 48 h. How it is done:
as §2, §1

Setting [7] is: Human alphaherpesvirus 1, 48 h, acyclovir-resistant strain, read-out: % HSV-1 Inhibition ± SD, 29R Strain.
Setting [8] is: Human alphaherpesvirus 1, 48 h, tested concentration 100 µg/mL, 48 h, post-infection treatment, read-out: % HSV-1 Inhibition ± SD, KOS Strain.

Where two headings read alike, the source gives them in different places.

What is called CC50 is the concentration at which the toxic effect on the cells reaches its halfway point. One may read the IC50 as the midpoint of a concentration-inhibition curve. Regarding `CC1=CCC[C@@H]2[C@@](C)(CCc3ccoc3)[C@@H](C)C[C@@H](O)[C@]12C` [Compound 6, 6-hydroxyannonene], the inhibition at 25 µg/mL in data set [1] (Human alphaherpesvirus 1, 48 h, tested concentration 25 µg/mL, 48 h, post-infection treatment, read-out: % HSV-1 Inhibition ± SD, KOS Strain) is 0%; in data set [3] (Human alphaherpesvirus 1, 48 h, tested concentration 25 µg/mL, acyclovir-resistant strain, read-out: % HSV-1 Inhibition ± SD, 29R Strain), 0%. In data set [2], the CC50 at 48 h turned out to be 40.8 µM. Also, the IC50 was 24.5 µM in data set [4] and less than 25 µM in data set [4] (Homo sapiens, A549, 48 h). The selectivity ratio at 48 h in data set [5] came to 1.66.

As for `C=C1C(C)=CCC[C@@H]1[C@@](C)(CCc1ccoc1)[C@@H](C)CC(=O)OC` [Compound 2, raspadiene], the inhibition at 100 µg/mL in data set [1] (Human alphaherpesvirus 1, 48 h, read-out: % HSV-1 Inhibition ± SD, KOS Strain, tested concentration 100 µg/mL, 48 h, post-infection treatment) came out at 83%; in data set [3] (setting [7]), 74%. The IC50 in data set [1] (Human alphaherpesvirus 1, 48 h) stood at 81.4 ± 9.82 µM; in data set [3] (Human alphaherpesvirus 1, 48 h, concentration ± SD that inhibited 50% of viral replication, unit inferred), 74.9 ± 7.3 µM; in data set [4] (Homo sapiens, A549, 48 h) it was 100 µM. Besides, the “% HSV-1 Inhibition ± SD, KOS Strain” value in data set [1] (tested concentration 100 µg/mL, 48 h, post-infection treatment) stood at 83.41 ± 16.12%. In data set [2], this compound gave a CC50 at 48 h greater than 250 µM. The compound also yielded a half-maximal cytotoxic concentration (CC50) in data set [6] greater than 250 µM. Moreover, the selectivity ratio at 48 h in data set [5] was greater than 2.49.

With `CC1=CCC[C@H]2C1(C(=O)O)[C@H](O)C[C@H](C)[C@]2(C)CCc1ccoc1` (stereo partly drawn) [Compound 3, kerlinic acid], the inhibition at 100 µg/mL in data set [1] (setting [8]) was 24.4 ± 4.04%; in data set [3] (setting [7]), 32 ± 6.12%. For the same compound, the half-maximal cytotoxic concentration (CC50) at 48 h in data set [2] was determined as 182 µM. The IC50 in data set [4] (Homo sapiens, A549, 48 h) was 66.2 µM. Moreover, the selectivity ratio at 48 h in data set [5] was 2.74.

`C[C@H]1C[C@@H](O)[C@]23C(=CCC[C@@H]2[C@@]1(C)CCc1ccoc1)CO[C@H]3O` [Compound 1, raspailol]: the inhibition at 100 µg/mL in data set [1] (setting [8]) is 34.6 ± 7.36%; in data set [3] (setting [7]) it was 0%. In data set [2], this compound returned a CC50 at 48 h of 148 µM. In addition, the IC50 in data set [4] is 24.1 µM; in data set [4] (Homo sapiens, A549, 48 h), less than 25 µM. Also, the selectivity ratio at 48 h in data set [5] was 6.14.

Consider `CC1=CCC[C@@H]2[C@@](C)(CCc3ccoc3)[C@@H](C)CC[C@]12C` [Compound 5, annonene], for which the inhibition at 100 µg/mL came out at 15.2 ± 4.65% in data set [1] (setting [8]) and 30.9 ± 9.07% in data set [3] (setting [7]). The same compound yielded a half-maximal cytotoxic concentration (CC50) at 48 h in data set [2] greater than 250 µM. Further, the IC50 in data set [4] (Homo sapiens, A549, 48 h) came out at 144 µM. Moreover, the selectivity ratio at 48 h in data set [5] was greater than 1.74.

As to `COC(=O)[C@@]12C(C)=CCC[C@@H]1[C@@](C)(CCc1ccoc1)[C@@H](C)C[C@H]2O` [Compound 4, kerlinic acid methyl ester], the IC50 in data set [1] (Human alphaherpesvirus 1, 48 h) is 52.4 ± 4.78 µM; in data set [4], 20.6 µM; in data set [4] (Homo sapiens, A549, 48 h), less than 25 µM. Besides, the inhibition at 50 µg/mL was determined as 50% in data set [1] (Human alphaherpesvirus 1, 48 h, tested concentration 50 µg/mL, 48 h, post-infection treatment, read-out: % HSV-1 Inhibition ± SD, KOS Strain) and 14.4 ± 5.46% in data set [3] (Human alphaherpesvirus 1, 48 h, tested concentration 50 µg/mL, acyclovir-resistant strain, read-out: % HSV-1 Inhibition ± SD, 29R Strain). Also, in data set [1] (tested concentration 50 µg/mL, 48 h, post-infection treatment), the “% HSV-1 Inhibition ± SD, KOS Strain” value came out at 50.23 ± 8.24%. In data set [2], the midpoint of cytotoxicity, the CC50 at 48 h, lay at 98.4 µM. The selectivity ratio at 48 h in data set [5] is 4.77.

Values taken from article PMC6356680, “Clerodane Diterpenes from the Marine Sponge Raspailia bouryesnaultae Collected in South Brazil” (Marine Drugs, 2019).
